From patent publication US4956363A, “Treatment of cognitive and behavioral disorders associated with aging and with dementia syndromes” (U C B S.A., priority 1988, dated 1990) come the findings set out here.

The test system of data set [1] is learning of the avoidance reflex. Kind of data set: Multiple-trial passive avoidance: learning. The format is in vivo, rats (male Sprague-Dawley). Conditions: i.p. at the dose (mg/kg) of the line in Table V, 30 min before test; criterion 180 seconds on the mat. As for the experimental part:
To evaluate whether a compound can promote learning, the following test is carried out.
This experiment is repeated until the animal remains on the rubber mat for at least 180 seconds in order to avoid the electric shock. The learning is expressed by the average number of trials needed to reach a period of 180 seconds remaining on the mat.
A period of remaining on the rubber mat of 180 seconds is regarded as being the maximum performance which can be realized by the animal to avoid the electric shock. Rats which remain on the mat for this period have acquired the avoidance reflex and are replaced in their original cage without receiving the electric shock.
group 1 receives an intraperitoneal injection of physiological salt solution:
group 2 receives an intraperitoneal injection of the compound to be tested:
Columns 3 and 4 show the results obtained in the test used to evaluate the learning. The figures indicate the average number of trials needed for a control animal (group 1) or an animal treated (group 2) with the compound to learn to remain on the rubber mat for 180 seconds in order to avoid the electric shock. The results were analyzed by the Student test.

For data set [2], the system named is amnesia induced by scopolamine. Kind of data set: Multiple-trial passive avoidance: mnemic retention (amnesia induced by scopolamine). The note with it: compound i.p. at the dose of the line + scopolamine 0.5 mg i.p. As for the experimental part:
To this end, the method of multiple-trial passive avoidance has been used. This method is well-known for evaluating the effects which a product exerts on the memory and learning (A. FINE et al., Proc. Natl. Acad. Sci. U.S.A., 82, (1985), 5227-5230).
The test is carried out on male Sprague-Dawley rats (160-200 g). which are kept in standard cages throughout the experiment.
The apparatus used is a transparent square cage with 35 cm sides and 25 cm high, fitted with a grid floor which can be electrified. An insulating rubber mat (10×17 cm) is placed on the floor in one of the corners of the cage.
Each animal is subjected to four tests at times 0, 4, 24 and 28 hours. In the first test (time 0), the animal is placed on the rubber mat and the time which it takes to decide to leave this position to explore the cage is recorded. After 20 seconds of exploration, the rat receives an electric shock (3 seconds duration) in the paws, causing a flight reaction. The rat is immediately removed from the apparatus and replaced in its original cage. In the course of the three subsequent tests (times: 4, 24 and 28 hours), the animal is replaced on the rubber mat and the time taken to leave this position is recorded. When the four paws of the animal rest on the grid, it receives an electric shock and is immediately removed from the apparatus.
At the start of the experiment, the rats are divided into 4 homogeneous groups of 15 animals. Thirty minutes before each test, each group of animals is subjected to a predetermined treatment:
Groups 1 and 2 are used in the first experiment and groups 3 and 4 are used in the second experiment.
The differences observed are analyzed statistically by the Mann-Whitney method.

A further data set deals with male NMRI mice. Kind of data set: Toxicity, Irwin's test. The format is in vivo. How it is done: Progressive doses of the compound to be tested are administered intraperitoneally to groups of three mice until the lethal dose is reached (dose which causes the death of two animals out of three within 48 hours).
[3] abbreviates: mice, i.p., death of two animals out of three within 48 hours.

Turning to `CCCc1nc(NCCO)nc(N2CCOCC2)n1`, in data set [1], the “Learning, average number of trials (group 2)” value (“Learning, average number” for short) worked out at 1.53. Further, in data set [2], the “Period of remaining on the mat, group 4, 4 hours” value was determined as 44.8 s; the “Period of remaining on the mat, group 4, 24 hours” value (shortened to “Period of remaining … 24 hours”) is 61.3 s; the “Period of remaining on the mat, group 4, 28 hours” value (from here on “Period of remaining … 28 hours”) is 102.7 s. This compound also came in with a Lethal dose in the data set on male NMRI mice (setting [3]) of 802 mg/kg.

As for `CCCc1nc(NN(C)C)nc(N2CCOCC2)n1`, the “Learning, average number” value in data set [1] is 1.53. Besides, in data set [2], the “Period of remaining on the mat, group 4, 4 hours” value was 55.3 s; the “Period of remaining … 24 hours” value was 57.7 s; the “Period of remaining … 28 hours” value turned out to be 87.9 s. The compound further returned a Lethal dose with male NMRI mice (setting [3]) of 799 mg/kg.

For the compound `CCCc1nc(NC(C)=O)nc(N2CCOCC2)n1` [listing 1 of 2 here], in data set [1], the “Learning, average number” value stood at 1.53. Besides, in data set [2], the “Period of remaining on the mat, group 4, 4 hours” value was 60.4 s; the “Period of remaining … 24 hours” value was 74.6 s; the “Period of remaining … 28 hours” value was determined as 102.4 s. For the same compound, the Lethal dose with male NMRI mice (setting [3]) is 996 mg/kg.

In the data set with male NMRI mice (setting [3]), `CCCc1nc(NC(C)=O)nc(N2CCOCC2)n1` [listing 2 of 2 here] yielded a Lethal dose of 905 mg/kg.

For `CCCc1nc(NC(=O)c2ccccc2)nc(N2CCOCC2)n1.Cl`, the “Learning, average number” value in data set [1] is given as 1.0. Also, in data set [2], the “Period of remaining on the mat, group 4, 4 hours” value came to 70.9 s; the “Period of remaining … 24 hours” value came out at 82.8 s; the “Period of remaining … 28 hours” value stood at 137.6 s. This compound returned a Lethal dose in the data set with male NMRI mice (mouse, in vivo, ip) of 1091 mg/kg.

Take `CCCc1nc(N2CCOCC2)nc(N(C)C(C)=O)n1` [listing 1 of 2 here]: the “Learning, average number” value in data set [1] is reported as 2.07. In data set [2], the “Period of remaining … 24 hours” value came out at 34.7 s and the “Period of remaining … 28 hours” value turned out to be 44.5 s. Also, the Lethal dose in the data set on male NMRI mice (setting [3]) worked out at 838 mg/kg.

Turning to `CCCc1nc(N2CCOCC2)nc(N(C)C(C)=O)n1` [listing 2 of 2 here], the Lethal dose in the data set on male NMRI mice (setting [3]) was determined as 947 mg/kg.

The compound `CCCc1nc(N2CCOCC2)nc(N(C)C(=O)C(C)C)n1` registered a Lethal dose in the data set with male NMRI mice (setting [3]) of 922 mg/kg.

For the compound `CCCc1nc(N2CCOCC2)nc(N(C)C(=O)c2ccccc2)n1.Cl`, the “Learning, average number” value in data set [1] was found to be 1.13. For the same compound, the “Period of remaining on the mat, group 4, time 0” value in data set [2] (0 h) worked out at 11.3 s. In addition, in data set [2], the “Period of remaining on the mat, group 4, 4 hours” value is 88.6 s; the “Period of remaining … 24 hours” value came out at 111.5 s; the “Period of remaining … 28 hours” value stood at 133.5 s. For the same compound, in the data set with male NMRI mice (mouse, in vivo, ip), the Lethal dose came out at 1133 mg/kg.

As to `CCCc1nc(NCCOC(C)=O)nc(N2CCOCC2)n1`, the “Learning, average number” value in data set [1] is recorded as 1.3. In data set [2], the “Period of remaining … 24 hours” value came to 44.4 s and the “Period of remaining … 28 hours” value turned out to be 49.9 s. This compound also showed a Lethal dose in the data set on male NMRI mice (setting [3]) of 928 mg/kg.

`CCCc1nc(N2CCOCC2)nc(N(CCOC(C)=O)C(C)=O)n1` returned a Lethal dose in the data set on male NMRI mice (setting [3]) of 351 mg/kg.

With `CCCc1nc(NC(CC)CO)nc(N2CCOCC2)n1` (centres unmarked), the “Learning, average number” value in data set [1] turned out to be 2.57. In addition, in data set [2], the “Period of remaining … 24 hours” value is 22.5 s and the “Period of remaining … 28 hours” value was determined as 52.1 s. Besides, the Lethal dose in the data set on male NMRI mice (setting [3]) is recorded as 886 mg/kg.

Regarding `CCCc1nc(N(C)CCO)nc(N2CCOCC2)n1`, in data set [1], the “Learning, average number” value is 2.0. In data set [2], the “Period of remaining on the mat, group 4, 4 hours” value is 67.9 s; the “Period of remaining … 24 hours” value worked out at 62.7 s; the “Period of remaining … 28 hours” value was determined as 160.3 s. In the data set with male NMRI mice (setting [3]), the Lethal dose turned out to be 844 mg/kg.

In the data set with male NMRI mice (setting [3]), `CCCc1nc(NO)nc(N2CCOCC2)n1` [Compound 2, 2-(hydroxyamino)-4-morpholino-6-propyl-1,3,5-triazine] returned a Lethal dose of 718 mg/kg.

`CCCc1nc(NCCCO)nc(N2CCOCC2)n1` [Compound 3] gave a Lethal dose in the data set with male NMRI mice (setting [3]) of 844 mg/kg.

In turn, `CCCc1nc(NCCCCO)nc(N2CCOCC2)n1` [Compound 4] yielded a Lethal dose with male NMRI mice (setting [3]) of 886 mg/kg.

Take `CCCc1nc(NCC(C)O)nc(N2CCOCC2)n1` (centres unmarked) [Compound 5]: the Lethal dose in the data set with male NMRI mice (setting [3]) is 563 mg/kg.

`CCCc1nc(NCC(O)CC)nc(N2CCOCC2)n1` (centres unmarked) [Compound 6] yielded a Lethal dose in the data set with male NMRI mice (setting [3]) of 886 mg/kg.

Consider `CCCc1nc(NC(C)(C)CO)nc(N2CCOCC2)n1` [Compound 8], for which, in the data set on male NMRI mice (setting [3]), the Lethal dose stood at 886 mg/kg.

For `CCCc1nc(NCC(O)CO)nc(N2CCOCC2)n1` (centres unmarked) [Compound 11], the Lethal dose in the data set on male NMRI mice (setting [3]) was found to be 892 mg/kg.

`CCCc1nc(NC(CO)(CO)CO)nc(N2CCOCC2)n1` [Compound 12]: the Lethal dose in the data set on male NMRI mice (setting [3]) was 982 mg/kg.

In the data set on male NMRI mice (setting [3]), `CCCc1nc(NC(C)(CO)CO)nc(N2CCOCC2)n1` [Compound 13] returned a Lethal dose of 934 mg/kg.

With `CCCc1nc(N2CCOCC2)nc(N(CCO)Cc2ccccc2)n1` [Compound 14], in the data set on male NMRI mice (setting [3]), the Lethal dose was above 1073 mg/kg.

Turning to `CCCc1nc(NC(CO)C(O)c2ccccc2)nc(N2CCOCC2)n1` (centres unmarked) [Compound 15], in the data set with male NMRI mice (setting [3]), the Lethal dose was 1121 mg/kg.

Turning to `CCCc1nc(NC[C@H](C)O)nc(N2CCOCC2)n1` [Compound 16, (S)-3-[(4-morpholino-6-propyl-1,3,5-triazin-2-yl)amino]-2-propanol], the Lethal dose in the data set on male NMRI mice (setting [3]) came out at 844 mg/kg.

Consider `CCCc1nc(NC[C@@H](C)O)nc(N2CCOCC2)n1` [Compound 17, (R)-3-[(4-morpholino-6-propyl-1,3.5-triazin-2-yl)amino]-2-propanol], for which the Lethal dose in the data set on male NMRI mice (setting [3]) worked out at 844 mg/kg.

Compound `CCCc1nc(NCC2(O)CCCCC2)nc(N2CCOCC2)n1` [Compound 18] came in with a Lethal dose in the data set on male NMRI mice (setting [3]) of 1007 mg/kg.

`CCCc1nc(N2CCOCC2)nc(N2CCCC2CO)n1` (centres unmarked) [Compound 19] had a Lethal dose with male NMRI mice (setting [3]) of 1031 mg/kg.

`CCCc1nc(NC(=O)Cc2ccccc2)nc(N2CCOCC2)n1` [Compound 23] registered a Lethal dose with male NMRI mice (setting [3]) above 1024 mg/kg.

In turn, `CCCc1nc(NC(=O)C(C)C)nc(N2CCOCC2)n1` [Compound 24] gave a Lethal dose in the data set on male NMRI mice (setting [3]) of 880 mg/kg.

In the data set with male NMRI mice (setting [3]), `CCCc1nc(NC(=O)Oc2ccccc2)nc(N2CCOCC2)n1` [Compound 28, phenyl (4-morpholino-6-propyl-1,3,5-triazin-2-yl)carbamate] came in with a Lethal dose above 1030 mg/kg.

As to `CCCc1nc(NC(=O)c2ccc(Cl)cc2)nc(N2CCOCC2)n1` [Compound 29], in the data set with male NMRI mice (setting [3]), the Lethal dose is 398 mg/kg.

Turning to `CCCc1nc(N2CCOCC2)nc(N(C)C(=O)c2ccc(Cl)cc2)n1` [Compound 30], the Lethal dose in the data set on male NMRI mice (setting [3]) was found to be 1125 mg/kg.

As for `CCCc1nc(NC(=O)c2ccc(OC)cc2)nc(N2CCOCC2)n1` [Compound 31], the Lethal dose in the data set with male NMRI mice (setting [3]) is on record as 511 mg/kg.

In turn, `CCCc1nc(N2CCOCC2)nc(N(C)C(=O)c2ccc(OC)cc2)n1` [Compound 32] gave a Lethal dose with male NMRI mice (setting [3]) of 1222 mg/kg.

As for `CCCc1nc(NC(=O)c2ccc(C)cc2)nc(N2CCOCC2)n1` [Compound 33], in the data set on male NMRI mice (setting [3]), the Lethal dose came to 1132 mg/kg.

`CCCc1nc(N2CCOCC2)nc(N(C)C(=O)c2ccc(C)cc2)n1` [Compound 34] returned a Lethal dose in the data set with male NMRI mice (setting [3]) of 1174 mg/kg.

`CCCc1nc(N2CCOCC2)nc(N(C)C(=O)c2ccc(OC)c(OC)c2)n1` [Compound 35]: the Lethal dose in the data set with male NMRI mice (setting [3]) is on record as 401 mg/kg.

`CCCc1nc(NC(=O)c2ccc(C)c(C)c2)nc(N2CCOCC2)n1` [Compound 36] showed a Lethal dose in the data set with male NMRI mice (setting [3]) of 1174 mg/kg.

Regarding `CCCc1nc(NCCOC(=O)C(C)C)nc(N2CCOCC2)n1` [Compound 38], the Lethal dose with male NMRI mice (setting [3]) is on record as above 1012 mg/kg.

`CCCc1nc(NCCOC(=O)c2ccccc2)nc(N2CCOCC2)n1` [Compound 39] came in with a Lethal dose in the data set with male NMRI mice (setting [3]) above 1114 mg/kg.

`CCCc1nc(NCCOC(=O)Cc2ccccc2)nc(N2CCOCC2)n1` [Compound 40] gave a Lethal dose in the data set with male NMRI mice (setting [3]) of 1157 mg/kg.

In the data set with male NMRI mice (setting [3]), `CCCc1nc(NCCOC(N)=O)nc(N2CCOCC2)n1` [Compound 42, 2-[[2-[(Aminocarbonyl)oxy]ethyl]amino]-4-morpholino-6-propyl-1,3,5-triazine] showed a Lethal dose above 931 mg/kg.
